Patent US20240349725A1, “FORMULATION COMPRISING AN ACID FUNCTION ACTIVE INGREDIENT, ESTER FUNCTION ACTIVE INGREDIENT AND SALT AND/OR CHEMICALLY LABILE ACTIVE INGREDIENT, THE USE THEREOF AND METHOD OF PRODUCTION” (Iharabrás S.A. Indústrias Químicas, priority 2021, published 2024)

Test: In-house compatibility observations of the actives with acids / 2,4-D amine salt solution
Assay type: physicochemical
Excerpt: Secondary amine salt formulations diethanolamine, diisopropanolamine) of 2,4-D and other herbicides containing a carboxylic acid function (2,4,5-T, ticlopyr, dicamba, picloram, aminopyralid, others) are extremely hydrophilic, being normally conveyed as a concentrated aqueous solution of high pH to avoid crystallization of the salt/free acid. […] As discussed, these active ingredients have physical-chemical features that make it difficult for them to be used together in the same formulation. In addition to this is the easy decomposition through base-catalyzed hydrolysis, of active ingredients containing the ester function, such as lactofen, if they were soluble or emulsified in an alkaline solution, as is the case of the aqueous solution of amine salts of 2,4-D. This effect was observed when lactofen was dissolved in a naphthenic organic solvent and then emulsified in a solution of 2,4-D dimethylamine salt. Shortly afterwards, lactofen had been decomposed even under mild temperature conditions, which made it impossible to provide this mixture under these conditions as a commercial product. It is also mentioned that, although the degradation kinetics may be different, compounds containing an ester group, such as lactofen, can also undergo solvolysis (hydrolysis if the solvent is water) in the presence of acids, which makes it impossible for lactofen to be transported with 2,4-D without neutralization of the latter by an alkaline compound. Bispyribac sodium is also a compound that easily degrades under different conditions. […] Bispyribac sodium is also known to only remain stable at pH levels close to neutral or slightly alkaline (7 to 9) and at temperatures around 25° C. and in the dark, with an acceleration of degradation under conditions other than these. These features of lactofen and bispyribac sodium make it difficult for one to develop formulations with other active ingredients, which may justify the absence of commercial products with these associated active ingredients.

## COc1cc(OC)nc(Oc2cccc(Oc3nc(OC)cc(OC)n3)c2C(=O)O)n1 [Bispyribac sodium, bispyribac sodium]
Even in the absence of water, observed internally
  degradation in the presence of acids: degrades easily
High acidity of 2,4-D
  degradation in the presence of unneutralized 2,4-D: fully degraded

## CCOC(=O)C(C)OC(=O)c1cc(Oc2ccc(C(F)(F)F)cc2Cl)ccc1[N+](=O)[O-] (stereo not drawn) [Lactofen, lactofen]
Dissolved in naphthenic organic solvent, emulsified in 2,4-D dimethylamine salt solution, mild temperature
  decomposition when emulsified in a solution of 2,4-D dimethylamine salt: decomposed
